Values joined by “and” are separate entries in the source; they are usually repeats but may differ in a detail not shown here. Equal values may be shown once. Read-outs that look alike come from different tables or passages of the source.
Columns and labels:
[1] = system: BK Virus; assay: BK virus replication in RPTECs, viral DNA by qPCR after 5 days; type: cell-based; settings: Betapolyomavirus hominis, RPTEC
Experimental: To test the ability of CMX001 to inhibit replication of BK virus, stocks of BK virus were prepared in HFF cells and dilutions of the virus stocks were used to infect primary human renal tubular epithelial cells (RPTECs). Drug dilutions were then added to the wells containing the infected cells and the plates were incubated for 5 days. Total DNA was prepared from the plates and viral DNA was quantified by qPCR.

[2] = system: AdV 5; design: species or system Syrian Hamster; settings: hamster, in vivo
[3] = SVG cell viability / cell number (MTS, alamar blue, hematoxylin); type: cell-based, human; settings: human; for cytotoxicity at 1 μM: read-out: reduction in viability (MTS)
Experimental: (§1) Quantification of cell viability using the MTS [3-(4,5-dimethylthiazol-2-yl)-5-(3-carboxymethoxyphenyl)-2-(4-sulfophenyl)-2H-tetrazolium] assay is based on bioactivity of mitochondrial dehydrogenase in living cells, which converts colorless tetrazolium salt to a colored formazan. MTS assays were performed according to manufacturer's instructions (Promega, Madison Wis.). Briefly, culture medium was removed from cells and 50 μL of PBS was added into each well of a 96 well plate. Ten μL of MTS reagent were added to wells of cells, and to a well without cells to determine background. Mixtures were incubated at 37° C. for 2 hours and the absorbance was measured at 490 nm. Trypan blue staining was performed on identical cultures to correlate MTS values with cell viability. The final values indicated are the result from 3 replicates. The value for the non-treated control was set to 100% and all other values are represented as a percentage of the control. Alamar blue (AB) assay.
(§2) Quantification of cell viability using the alamar blue (AB) assay was performed according to the manufacturer's instructions (Invitrogen, Gaithersburg, Md.). Briefly, 10 μL of AB reagent was added to each well of a 96 well dish containing cells or without cells to determine background. Mixtures were incubated at 37° C. for 6 hours and the absorbance measured at 570 nm using 600 nm as a reference wavelength. The value for the non-treated control was set to 100% and all other values are represented as a percentage of the control.
(§3) Because cell density in cultures processed for in situ DNA hybridization could not be measured by MTS or AB assays, cell density was approximated in cell cultures processed by quantifying hematoxylin staining intensity. Coverslips containing cells were prepared for in situ DNA hybridization and co-stained with hematoxylin. Subsequently, each coverslip was scanned and the hematoxylin intensities quantified using ImageJ. To determine the total cell number per coverslip, images were acquired at 10 random positions at 100× magnification. Cells were counted throughout each image and the average cell number per slide was generated by averaging counts from the 10 images for each experimental group. Exactly 900 images at 100× magnification cover the surface of an 18 mm×18 mm coverslip.

[4] = system: SVG cells; assay: as above; type: cell-based, human
Experimental: as §1, §2, §3

[5] = Clearance and organ distribution in mouse; type: in vivo; settings: oral 5 mg/kg [C2-14C]CMX001, four hours
[6] = system: BKV; assay: First fifteen EIND patients: BKV; type: in vivo, human; settings: one of two BKV patients
[7] = system: Adenovirus; assay: Adenovirus IC50s for CMX001, serotypes/isolates; type: cell-based
[8] = system: CMV

Compound: CCCCCCCCCCCCCCCCOCCCOP(=O)(O)CO[C@H](CO)Cn1ccc(N)nc1=O [CMX001, Hexadecyloxypropyl-cidofovir]
- EC50 ([1]; Virus Dilution 1:10): 16 nM
- EC50 ([1]; Virus Dilution 1:50): 3.5 nM
- EC50 ([1]; Virus Dilution 1:100): 3.7 nM
- reduction of infectious AdV5 titers in liver [2]: 6 logs
- cytotoxicity at 1 μM ([3]; JCV-infected SVG cells (established infection), 1 μM, JCV-infected cells, established infection): 40%
- cytotoxicity at 4 days, 0.01 μM ([3]; SVG cells, 0.01 μM, 4 days, read-out: reduction in cell viability (alamar blue)): 6%
- cytotoxicity at 4 days, 0.1 μM ([3]; SVG cells, 0.1 μM, 4 days, read-out: reduction in cell viability (alamar blue)): 11%
- cytotoxicity at 4 days, 1 μM ([3]; SVG cells, 1 μM, 4 days, read-out: reduction in cell viability (alamar blue)): 32%
- cytotoxicity at 1 μM ([3]; non-infected SVG cells, 1 μM, non-infected cells): 15%
- reduction in total cell number (hematoxylin) ([4]; 0.01 μM): did not result in significant reduction
- reduction in total cell number (hematoxylin) ([4]; 0.03 μM): 14%
- reduction in total cell number (hematoxylin) ([4]; 0.07 μM): 39%
- reduction in total cell number (hematoxylin) ([4]; 0.1 μM): 46%
- cell viability (MTS) ([4]; 0.01 or 0.1 μM, non-infected or JCV-infected (established infection) SVG cells): did not alter cell viability
- concentrations at which cytotoxicity was observed ([4]; SVG cells): ≥ 1000 nM
- availability and distribution [5]: orally available and widely distributed
- response [6]: > 1.5 log 10
- IC50 ([7]; Ad14 (three isolates)): 41 nM and 36 nM
- IC50 ([7]; unidentified adenovirus, Ad3): 48 nM
- IC50 ([7]; unidentified adenovirus, Ad3 ATCC): 34 nM
- IC50 ([7]; unidentified adenovirus, Ad4): 32 nM
- IC50 ([7]; unidentified adenovirus, Ad4 ATCC): 20 nM
- IC50 ([7]; unidentified adenovirus, Ad5 ATCC): 46 nM
- IC50 ([7]; unidentified adenovirus, Ad7): 34 nM
- IC50 ([7]; unidentified adenovirus, Ad7 ATCC): 65 nM
- IC50 ([7]; unidentified adenovirus, Ad14 (three isolates)): 34 nM
- IC50 ([7]; unidentified adenovirus, Ad14 ATCC): 22 nM
- IC50 ([7]; unidentified adenovirus, Ad21): 44 nM
- average reduction in CMV by PCR ([8]; 2 of 5 patients without UL54 mutations): 1.2 log 10
- median reduction in VL ([8]; 4 weeks, 7 patients): greater than 1.2 log 10
- 1 log reduction in viremia at the last time point ([8]; patients with UL54 mutation (L501F and A987G)): Neither of two patients
- complete response ([8]; patients without mutations in CMV UL54 (3 of 5)): 60%
- dose adjustment for kidney function ([8]; two patients with pre-existing renal insufficiency): no dose adjustment was needed based on kidney function
